Data on nine molecules can be found in patent US7973075B2, “Kainate receptor-selective epimeric analogs of dysiherbaine” (priority 2007, dated 2011).

The term pIC50 denotes the negative decadic logarithm of the IC50, by convention in mol/L.

pIC50: −log10 of the molar value. Entries after “also recorded” stand apart in the source; their conditions may differ. Where two headings read alike, the source gives them in different places.

The target of the assay is T1, GluR5-2a (Rattus norvegicus, UniProt P22756, DEL402-416).
T1 construct: expressed in transfected cells; host or cells: HEK-293-T/17
T1 sequence (P22756 with tags, fused parts or gaps isoform P22756-2 limits assumed, stated change not applied): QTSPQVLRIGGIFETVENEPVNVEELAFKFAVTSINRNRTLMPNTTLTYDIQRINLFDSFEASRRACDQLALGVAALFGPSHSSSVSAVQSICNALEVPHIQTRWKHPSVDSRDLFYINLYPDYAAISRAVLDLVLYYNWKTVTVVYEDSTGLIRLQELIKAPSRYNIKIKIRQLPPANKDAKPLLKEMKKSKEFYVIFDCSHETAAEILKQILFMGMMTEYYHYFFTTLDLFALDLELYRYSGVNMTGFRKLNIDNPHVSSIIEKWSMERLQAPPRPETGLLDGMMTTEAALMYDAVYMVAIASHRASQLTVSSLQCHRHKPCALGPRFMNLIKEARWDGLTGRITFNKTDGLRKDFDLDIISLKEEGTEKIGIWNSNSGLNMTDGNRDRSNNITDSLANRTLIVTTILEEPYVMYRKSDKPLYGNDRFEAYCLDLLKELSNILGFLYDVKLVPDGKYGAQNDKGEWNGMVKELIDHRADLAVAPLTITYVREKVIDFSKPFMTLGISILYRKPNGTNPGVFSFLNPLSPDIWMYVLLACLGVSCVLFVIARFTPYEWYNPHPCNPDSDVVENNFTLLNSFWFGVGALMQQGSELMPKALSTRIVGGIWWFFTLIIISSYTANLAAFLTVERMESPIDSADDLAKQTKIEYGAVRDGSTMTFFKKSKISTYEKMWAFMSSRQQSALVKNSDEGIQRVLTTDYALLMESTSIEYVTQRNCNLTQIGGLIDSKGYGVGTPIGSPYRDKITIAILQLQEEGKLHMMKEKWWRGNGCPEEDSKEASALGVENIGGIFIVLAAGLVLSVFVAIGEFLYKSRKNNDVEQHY
As to the kind of experiment: Whole-cell patch clamp recordings, transfected HEK-293-T/17 cells, Example 2. In kind it is cell-based. The note with it: for recovery of glutamate-evoked currents after analog application, GluR5-2a: 30 μM analog; for agonist activity: analog-evoked currents from GluR5-2a receptors (words): 1 s test application of the analog at a high concentration (10-100 μM); for inhibition of glutamate-evoked current, GluR5-2a: pre-application of 1 μM analog, 10 mM glutamate; for time constant for recovery of glutamate-evoked currents, τ: after 2.5 min application of 30 μM analog. The protocol: Cell Culture and Electrophysiology. HEK-293-T/17 cells were maintained in Dulbecco's modified Eagle's medium (DMEM) supplemented with 100 μg/mL penicillin, 100 μg/mL streptomycin, and 10% heat inactivated fetal bovine serum. One day before transfection, HEK-T/17 cells were plated at low density on glass coverslips coated with 100 μg/ml poly-D-lysine and 100 μg/ml collagen. Cells were transfected with receptor cDNAs ([…]) in combination with enhanced green fluorescent protein (eGFP) cDNA for visualization of transfected cells. Transfections were carried out with Fugene6 (Roche Applied Science) according to the manufacturer's protocol and used 2-3 days following transfection. Internal solution consisted of 110 mM CsF, 30 mM CsCl, 4 mM NaCl, 0.5 mM CaCl2, 10 mM HEPES, and 5 mM EGTA, and was adjusted to pH=7.3 with CsOH. The external solution contained 150 mM NaCl, 2.8 mM KCI, 2 mM CaCl2, 1 mM MgCl2, and 10 mM HEPES, adjusted to pH=7.3 with NaOH. Patch electrodes from thick-walled borosilicate glass (Warner Instruments, Hamden, Conn.) were pulled to a final resistance of 1.5 to 2.5 MO after fire polishing. […] To determine the pre-desensitization IC50 of selected analogs, several control glutamate (10 mM) applications were followed by a 2.5 minute application of various concentrations of 8-deoxy-neoDH, 9-deoxy-neoDH, or MSVIII-19, after which the analogs were co-applied with glutamate. A similar protocol was followed to measure the recovery of glutamate-evoked currents, with the exception that the analogs were not co-applied with glutamate. Whole cell patch clamp recordings were carried out using an Axopatch 200B amplifier (Axon Instruments). Data were analyzed with Origin 7.5 (OriginLab Corp.), and Prism4 (GraphPad Software Inc.); inhibition-response curves were plotted and fit with a one-site competition curve constrained to fixed minima (0) and maxima (100).
Because neoDH and its natural analog, dysiherbaine (DH), both act as KAR agonists, we tested each of the analogs for agonist activity using whole-cell patch clamp recordings. Application of saturating concentrations of glutamate (10 mM) to a transiently transfected HEK-293-T/17 cell was first done to obtain a rapidly activating and desensitizing control current; this was then followed by a test application of the analog at a high concentration (10-100 μM).
9-deoxy-neoDH and the di-deoxy antagonist, MSVIII-19, have very similar binding profiles on GluR5-2a and other subunits (Sanders et al., 2005), but both their functional activities and behavioral properties differ. 9-deoxy-neoDH elicits small but reproducible currents from GluR5-2a receptors (FIG. 8B), whereas MSVIII-19 behaves as an antagonist (Sanders et al., 2005). To further compare the activity of these compounds and the high-affinity agonist 8-deoxy-neoDH on GluR5-2a receptors, we determined their respective IC50s for pre-desensitization of the receptor (FIG. 9). Responses to 10 mM glutamate were elicited to determine the control current amplitudes for GluR5-2a expressing cells; receptors were then pre-desensitized with low concentrations of the analog (8-deoxy-neoDH or 9-deoxy-neoDH) before test co-applications with glutamate.
Several analogs, including the parent compounds DH and neoDH, induce a very stable, ligand-bound desensitized conformation of GluR5-2a and GluR6a receptors that occludes subsequent activation of the receptors for long periods of time. We measured the duration of the interaction of Group I analogs with GluR5-2a receptors by determining the time course of recovery of glutamate-evoked currents after application of the analogs (for 2.5 min) (FIG. 10). In FIG. 10A, traces on the left are representative control glutamate-evoked currents; traces on the right are glutamate-evoked currents ten minutes after exposure to 8-deoxy-neoDH, 9-deoxy-neoDH, or MSVIII-19 (each at 30 μM). […]

`N[C@@H](C[C@@]1(C(=O)O)CC2OCC(O)C(O)C2O1)C(=O)O` (single isomer, unassigned) [2,4-epi-neoDH, 2,4-epi-neodysiherbaine]: the “recovery of glutamate-evoked currents after analog application, GluR5-2a” value (“recovery … after analog application, GluR5-2a” for short) was “remained associated with the GluR5-2a receptor for many minutes” and the “agonist activity: analog-evoked currents from GluR5-2a receptors (words)” value (“agonist activity: analog-evoked currents” below) was “failed to elicit detectable current; also recorded: antagonist (or possibly a very weak partial agonist); also recorded: fails to activate GluR5 or GluR6 receptors, even at 100 μM”. Moreover, under “10 mM glutamate in continued presence of analog, read-out: IC50 inhibition of glutamate-evoked currents, GluR5-2a”, the pIC50 was 5.12. Besides, the “agonist activity: analog-evoked currents” value (listed as 2,4-epineoDH) is recorded as “fails to activate”.
Regarding `N[C@@H](C[C@@]1(C(=O)O)CC2OCC(O)C(O)C2O1)C(=O)O` (single isomer, unassigned) [4-epi-neoDH, 4-epi-neodysiherbaine], the “recovery … after analog application, GluR5-2a” value is reported as “remained associated with the GluR5-2a receptor for many minutes” and the “agonist activity: analog-evoked currents” value is “evoked small but detectable currents; also recorded: elicits large currents; also recorded: activates”.
For the molecule `NC(CC1(C(=O)O)CC2OCC(O)C(O)C2O1)C(=O)O` (stereo not drawn) [8,9-epi-neoDH, 8,9-epi-neodysiherbaine], the “agonist activity: analog-evoked currents” value is “failed to activate GluR5-2a-expressing cells”. In addition, for the setting “listed as 8,9epi-neoDH”, the “agonist activity: analog-evoked currents” value is listed as “failed to elicit a detectable current”. For the same molecule, for the setting “high test concentrations, data not shown”, the “inhibition of glutamate-evoked currents in GluR5-2a-expressing cells” value is “modestly inhibited”.
`N[C@@H](C[C@]1(C(=O)O)C[C@H]2OC[C@@H](O)C[C@H]2O1)C(=O)O` [8-deoxy-neoDH]: the pIC50 is 9.62; the “recovery … after analog application, GluR5-2a” value is “completely attenuated glutamate currents in response to glutamate for up to 15 min; also recorded: remained associated beyond the duration of the experiments”; the “agonist activity: analog-evoked currents” value was “elicited currents; also recorded: full agonist, or a highly efficacious partial agonist; also recorded: full agonists or highly efficacious partial agonists; also recorded: GluR5 agonists”; the “inhibition of glutamate-evoked current, GluR5-2a” value is recorded as “completely inhibited”.
For `NC(CC1(C(=O)O)CC2OCC(O)C(O)C2O1)C(=O)O` (stereo not drawn) [8-epi-neoDH, 8-epi-neodysiherbaine], the “agonist activity: analog-evoked currents” value is given as “elicited rapidly activating currents”. Further, the “agonist activity: analog-evoked currents” value (listed as 8-epineoDH) is “elicited large desensitizing currents with variable kinetics”.
`NC(CC1(C(=O)O)CC2OCC(F)C(O)C2O1)C(=O)O` (stereo not drawn) [9-F-8-epi-neoDH]: the “agonist activity: analog-evoked currents” value is “elicited rapidly activating currents; also recorded: elicited large desensitizing currents with variable kinetics”.
Take `N[C@@H](C[C@]1(C(=O)O)C[C@H]2OCC[C@@H](O)[C@H]2O1)C(=O)O` [9-deoxy-neoDH]: the “agonist activity: analog-evoked currents” value is on record as “elicited currents; also recorded: very weak agonist; also recorded: GluR5 agonists”; the “time constant for recovery of glutamate-evoked currents, τ” value amounted to 1.5 s; the “inhibition of glutamate-evoked current, GluR5-2a” value is “inhibited but did not abolish”. In addition, for the setting “2.5 min analog application, then co-application with 10 mM glutamate, read-out: IC50 for pre-desensitization of GluR5-2a receptors”, the pIC50 was 6.82.
As to `NC(CC1(C(=O)O)CC2OCC(O)C(O)C2O1)C(=O)O` (stereo not drawn) [9-epi-neoDH, 9-epi-neodysiherbaine], the “agonist activity: analog-evoked currents” value is “elicited rapidly activating currents; also recorded: elicited very small amplitude, weakly desensitizing currents; also recorded: very weak partial agonists”.
On to `N[C@@H](C[C@]1(C(=O)O)C[C@H]2OCCC[C@H]2O1)C(=O)O` [MSVIII-19, 8,9-dideoxy-neoDH], for which the “time constant for recovery of glutamate-evoked currents, τ” value is reported as 1.4 s.
